Measurements as given in patent US11129897B2, “Fast-acting plant-based medicinal compounds and nutritional supplements” (RECEPTOR HOLDINGS, INC., priority 2016, dated 2021).

Experiments:
[1] = cited from earlier work
[2] = versus molecule without SNAC; in words; cited from earlier work
study participants [3] = test: Onset and duration of action of orally administered Cannabis/SNAC composition at a low SNAC dose (Example 3, 100 mg SNAC); type: in vivo, human; conditions: oral; 100 mg SNAC with Cannabis concentrate (8 mg THC)
Procedure: This study was designed to assess the utility of SNAC in enabling a rapid-acting oral form of Cannabis at a low dose.
Selection of Participants. Three study participants were recruited to ingest Cannabis compositions and record the onset, duration, and intensity of Cannabis-induced euphoria and/or dysphoria.
(§1) Formulations. The selected Cannabis concentrate is commercially available and was provided to participants in an ethanol solution. The concentrate contains 8 mg THC per dose. It was selected because it contains a high percentage of THC, which provides a noticeable effect on user-reported “euphoria”.
(§2) Methods. For the Control experiment, each participant mixed the Cannabis concentrate with 15 ml (one tablespoon) of aqueous ethanol, and immediately swallowed the mixture.
For both the Control experiment and the Test experiment, each participant recorded the time of dose administration, the time of onset of euphoria and/or dysphoria, and the observed level of euphoria and/or dysphoria in fifteen minute intervals for five hours following administration of the Cannabis dose. Euphoria and dysphoria were reported using a scale value, in a range from 1-5.

study participants [4] = test: Onset and duration of action of orally administered Cannabis/SNAC composition (Example 2, 200 mg SNAC); type: in vivo, human; conditions: oral; 200 mg SNAC with Cannabis concentrate (8 mg THC)
Procedure: This study was designed to assess the utility of SNAC in enabling a rapid-acting oral form of Cannabis.
Selection of Participants. Six study participants were recruited to ingest Cannabis compositions and record the onset, duration, and intensity of Cannabis-induced euphoria and/or dysphoria.
as §1, §2
For both the Control experiment and the Test experiment, each participant recorded the time of dose administration, the time of onset of euphoria and/or dysphoria, and the observed level of euphoria and/or dysphoria in fifteen minute intervals for five hours following administration of the Cannabis dose. Euphoria and dysphoria were reported using a scale value, in a range from 1-10.

| Compound | absorption when co-administered with an N-acylated fatty amino acid (e.g., SNAC) [2] | also measured |
| --- | --- | --- |
| CCCCCc1cc(O)c2c(c1)OC(C)(C)[C@@H]1CCC(C)=C[C@@H]21 [THC, delta-9-tetrahydrocannabinol] | – | appetite stimulant effect may continue after administration ([1]; after oral administration): ≥ 24 h; duration of action for psychoactive effects ([1]; after oral administration): 4 to 6 h; peak effect (time) ([1]; after oral administration): 2 to 4 h; administered dose that reaches the systemic circulation ([1]; oral, first pass hepatic metabolism and poor aqueous solubility): 10-20% |
| calcitonin: calcitonin, water-soluble molecule with SNAC-improved absorption | improved absorption | – |
| vitamin B12 | improved absorption | – |
| heparin | improved absorption | – |
| GLP-1: GLP-1, water-soluble molecule with SNAC-improved absorption | improved absorption | – |
| PTH 1-34: parathyroid hormone 1-34 | improved absorption | – |
| peptide yy: peptide yy, water-soluble molecule with SNAC-improved absorption | improved absorption | – |
| rhGH: recombinant human growth hormone | improved absorption | – |
| CCCCCN(C)CCC(O)(P(=O)(O)O)P(=O)(O)O [ibandronate] | improved absorption | – |
| sodium N-[8-(2-hydroxybenzoyl) amino] caprylate [SNAC] | – | effect of the absorption enhancer on the duration of action of Cannabis (study participants [3]): no effect on the duration of action; effect of the absorption enhancer on the duration of action of Cannabis (study participants [4]): no effect on the duration of action |
| MT-II | improved absorption | – |
